Assay results from patent US5166348A, “Bornyl and isobornyl esters of carboxylic acids of condensed tetrahydroquinoxalines” (Uralsky politekhnichesky institut, priority 1989, dated 1992).
“And” between values parts separate entries of the source, which are not always exact repeats. Equal entries are not always repeated. “Also recorded” adds a separate entry of the source. Where two headings read alike, the source gives them in different places.

How the values were obtained:
[1] = acute toxicity, oral, mongrel albino mice; details: mouse, in vivo
Description: Acute toxicity of the proposed compounds 1a through 1e was tested in experiments on mongrel albino mice with oral administration of the drug.

influenza virus B = format: in vivo, albino mice; details: for % of diseased mice and of died mice / % of diseased mice and died mice / Efficiency, % / Elongation of animal life in test group (compared with control) / Mean Incubation / Protection factor / Elongation of animals life in test group compared with control / Mean incubation period / Factor of reduction of number of diseased mice (protection factor): influenza virus B; for Factor of reduction of number of diseased mice (protection factor): compared with control
mice [2] = details: mouse, in vivo
influenza virus C = assay: activity against influenza virus C in chick embryos, summary; format: in vivo
Description: The activity of the proposed compound 1a against influenza virus C has been studied.

[3] = tested on: tick-borne encephalitis virus (Absettar strain); format: in vivo, mongrel albino mice
[4] = tested on: influenza virus C, C(Leningrad)393/87; format: in vivo, chick embryos
[5] = tested on: influenza virus C, C(Leningrad)412/83; format: in vivo, chick embryos
[6] = tested on: influenza virus C, C(Ulan-Ude)131/86; format: in vivo, chick embryos
[7] = tested on: influenza virus C, C(USA)1233/47; format: in vivo, chick embryos
viruses = assay: spectrum of antiviral activity, summary
influenza virus [8] = format: in vivo, mice
RS virus = RS virus reproduction in the lungs of infected cotton rats; format: in vivo; details: intranasally
Description: (§1) Activity of the proposed compound 1a to the agent causing respiratory syncytial infection was tested. […]

[9] = tested on: RS virus (strain Novoshakhtinsky 3080); assay: reproduction of RS virus in L-41 tissue culture; format: cell-based
Description: as §1

influenza virus [10] = format: in vivo, mice; remark: listed apart in the source
mice [11] = assay: toxicity for mice; details: compared with remantadine
influenza virus [12] = details: given intranasally to pregnant mice + influenza virus
[13] = 0.2 ml of 0.5% solution into the stomach
[14] = 1 mg/mouse, 24 hours and 1 hour before and 24, 48 and 72 hours after infection

CCC(N)C12CC3CC(CC(C3)C1)C2 (stereo not shown) [adapromine, reference compound]
LD50 [1]: 45 mg/kg | % of diseased mice and of died mice (influenza virus B; per os, 1 mg per animal): 25% and 12% and 20% | Minimum effective dose against influenza viruses, type B (influenza virus B; influenza virus type B): 1.0 mg/mouse | Chemotherapeutic index for influenza viruses, type B (influenza virus B; influenza virus type B, toxicity vs minimum effective dose): 6 | Toxicity for mice (mice [2]): 6 mg/mouse

CC1=C(C(=O)OC2CC3CCC2(C)C3(C)C)C2Nc3ccccc3N(C)C2O1 (stereo not shown) [compound 1a, isobornyl ester of 2,9-dimethyl-3a,4,9,9a-tetrahydrofuro [2,3-b] quinoxaline-3-carboxylic acid]
activity against influenza virus C (in words) (influenza virus C): inhibits reproduction of influenza virus C | Efficiency, % [3, 13]: 70% | Elongation of animal life in group of treated animals [3, 13]: 1.5 days | Mean incubation period [3, 13]: 11.4 days | % of diseased mice and mice which died ([3]; 0.2 ml of 0.5% solution into the stomach, 4 h before and 24, 48, 72, 96 h after infection): 18.7% | Factor of reduction of quantity of diseased mice (protective factor) ([3]; 0.2 ml of 0.5% solution into the stomach, vs physiological saline control): 3.3 | activity against the causative agent of tick-borne encephalitis (in words) ([3]; mouse, in vivo): antiviral activity of the compound against the causative agent of tick-borne encephalitis; also recorded: highly active against the causative agent of tick-borne encephalitis | mortality rate ([3]; test group, control group 62.5%): 18.7% | decrease of mortality rate, times less ([3]; test vs control group): 3.3 times | Titre of virus (lg) in embryo [4]: 3.2 ± 0.3 lg | Inhibition of virus reproduction (lg) ([4]; vs solvent control): 1.3 lg | Titre of virus (lg) in embryo [5]: 3.5 ± 0.3 lg | Inhibition of virus reproduction (lg) ([5]; vs solvent control): 1.5 lg | Titre of virus (lg) in embryo [6]: 3.6 ± 0.3 lg | Inhibition of virus reproduction (lg) ([6]; vs solvent control): 1.6 lg | % of diseased mice and died mice (influenza virus B; [14]): 20% | Efficiency, % (influenza virus B; [14]): 73% | Elongation of animal life in test group (compared with control) (influenza virus B; [14]): 2.4 days | Mean Incubation (influenza virus B; [14]): 11.0 | Protection factor (influenza virus B; [14]): 3.7 | % of diseased mice and of died mice (influenza virus B; per os, 1 mg per animal): 20% | Efficiency, % (influenza virus B; per os, 1 mg per animal): 73% | Elongation of animals life in test group compared with control (influenza virus B; per os, 1 mg per animal): 2.4 days | Mean incubation period (influenza virus B; per os, 1 mg per animal): 11.0 days | Factor of reduction of number of diseased mice (protection factor) (influenza virus B; per os, 1 mg per animal): 3.7 | Minimum effective dose against influenza viruses, type B (influenza virus B; influenza virus type B): 0.04 mg/mouse | Titre of virus (lg) in embryo [7]: 2.8 ± 0.4 lg | Inhibition of virus reproduction (lg) ([7]; vs solvent control): 1.7 lg | spectrum of antiviral activity (in words) (viruses): most pronounced effect against the virus of the tick-borne encephalitis, epidemic, influenza viruses A, B and C, including those resistant to remantadine, and also the virus causing respiratory syncytial infection | % of lethal cases among mice after infection of their mothers, in 6 days (influenza virus [8]; given to female mice + virus, 6 days): 3% | % of lethal cases among mice after infection of their mothers, in 7 days (influenza virus [8]; given to female mice + virus, 7 days): 10% | % of lethal cases among mice after infection of their mothers, in 8 days (influenza virus [8]; given to female mice + virus, 8 days): 10% | % of lethal cases among mice after infection of their mothers, in 9 days (influenza virus [8]; given to female mice + virus, 9 days): 10% | % of lethal cases among mice after infection of their mothers, in 10 days (influenza virus [8]; given to female mice + virus, 10 days): 13% | protection of sucklings (in words) (influenza virus [8]; given to pregnant or nursing mice): protects the sucklings from trasnplacental infection with the virus or infection from a diseased mouse | virus reproduction in the lungs (in words) (RS virus): decreases the virus reproduction in the lungs of the animals | mean titre of the virus lower than in control group (RS virus; lungs, vs control group): 1.8-2.0 lg | % of test tubes with degenerated culture ([9]; L-41 tissue culture): 17% | Intensity of reduction of quantity of test tubes with degenerated cultures ([9]; L-41 tissue culture): 0.18 | Factor of reduction of quantity of test tubes with degenerated cultures ([9]; L-41 tissue culture, vs 0.9% NaCl solution): 5.3 | effect on reproduction of RS virus (in words) ([9]; tissue culture L-41, strain Novoshakhtinsky 3030 as printed in text): inhibits reproduction of RS virus | protection and growth of nurslings, course of infection (in words) (influenza virus [10]; mouse, in vivo): protects their nurslings from infection and death; moreover, it promotes their normal growth as estimated by gain in weight; also recorded: almost does not differ from the weight of young mice borne from control mice; also recorded: promotes an asymptomatic course of infection in pregnant mice and formation of immunity in their posterity | Mean weight of suckling mice, g, day 0 (influenza virus [10]; plus influenza virus, day 0): 1.5 g | Mean weight of suckling mice, g, day 3 (influenza virus [10]; plus influenza virus, day 3): 2.6 g | Mean weight of suckling mice, g, day 5 (influenza virus [10]; plus influenza virus, day 5): 3.4 g | Mean weight of suckling mice, g, day 7 (influenza virus [10]; plus influenza virus, day 7): 3.4 g | Mean weight of suckling mice, g, day 9 (influenza virus [10]; plus influenza virus, day 9): 3.6 g | toxicity lower than that of remantadine, times (mice [11]): 2.5-3 times | Mortality rate among suckling mice, %, 4 days after infection (influenza virus [12]; 4 days): 0% | Mortality rate among suckling mice, %, 7 days after infection (influenza virus [12]; 7 days): 7% | Mortality rate among suckling mice, %, 8 days after infection (influenza virus [12]; 8 days): 23% | Mortality rate among suckling mice, %, 11 days after infection (influenza virus [12]; 11 days): 23% | Toxicity for mice (mice [2]): 16 mg/mouse

CCN1c2ccccc2NC2C(C(=O)OC3CC4CCC3(C)C4(C)C)=C(C)OC21 (stereo not shown) [compound 1b, isobornyl ester of 2-methyl-9-ethyl-3a,4,9,9a-tetrahydrofuro [2,3-b] quinoxaline-3-carboxylic acid]
% of diseased mice and of died mice (influenza virus B; per os, 1 mg per animal): 27% | Efficiency, % (influenza virus B; per os, 1 mg per animal): 65% | Elongation of animals life in test group compared with control (influenza virus B; per os, 1 mg per animal): 2.2 days | Mean incubation period (influenza virus B; per os, 1 mg per animal): 10.0 days | Factor of reduction of number of diseased mice (protection factor) (influenza virus B; per os, 1 mg per animal): 2.9

CCN1c2ccccc2NC2C(C(=O)OC3CC4CCC3(C)C4(C)C)=C(C)OC21 (stereo not shown) [compound 1c, bornyl-2-methyl-9-ethyl-3a,4,9,9a-tetrahydrofuro [2,3-b] quinoxaline-3-carboxylate]
% of diseased mice and of died mice (influenza virus B; per os, 1 mg per animal): 25% | Efficiency, % (influenza virus B; per os, 1 mg per animal): 64% | Elongation of animals life in test group compared with control (influenza virus B; per os, 1 mg per animal): 2.4 days | Mean incubation period (influenza virus B; per os, 1 mg per animal): 11.0 days | Factor of reduction of number of diseased mice (protection factor) (influenza virus B; per os, 1 mg per animal): 2.8

CC(N)C12CC3CC(CC(C3)C1)C2 (stereo not shown) [remantadine, reference compound]
LD50 [1]: 640 mg/kg | % of diseased mice and died mice (influenza virus B; [14]): 20% | Efficiency, % (influenza virus B; [14]): 73% | Elongation of animal life in test group (compared with control) (influenza virus B; [14]): 2.3 days | Mean Incubation (influenza virus B; [14]): 10.9 | Protection factor (influenza virus B; [14]): 3.7 | Toxicity for mice (mice [2]): 6 mg/mouse

bornyl-3a,5-dimethyl-2-phenyl-3a,4,4a,5,10,10a-hexahydro-1,3,4-thiadiazole[2,3-a] quinoxaline (2,3-d) pyrrole-4-carboxylate [compound 1d]
% of diseased mice and of died mice (influenza virus B; per os, 1 mg per animal): 20% | Efficiency, % (influenza virus B; per os, 1 mg per animal): 72% | Elongation of animals life in test group compared with control (influenza virus B; per os, 1 mg per animal): 2.5 days | Mean incubation period (influenza virus B; per os, 1 mg per animal): 11.0 days | Factor of reduction of number of diseased mice (protection factor) (influenza virus B; per os, 1 mg per animal): 3.6

isobornyl 3a,5-dimethyl-2-phenyl-3a,4,4a,5,10,10a-hexahydro-1,3,4-thiadiazole [2,3-a] quinoxaline [2,3-d]-pyrrole-4-carboxylate [compound 1e]
% of diseased mice and of died mice (influenza virus B; per os, 1 mg per animal): 21% | Efficiency, % (influenza virus B; per os, 1 mg per animal): 71% | Elongation of animals life in test group compared with control (influenza virus B; per os, 1 mg per animal): 2.4 days | Mean incubation period (influenza virus B; per os, 1 mg per animal): 10.9 days | Factor of reduction of number of diseased mice (protection factor) (influenza virus B; per os, 1 mg per animal): 3.4
